Measured values: ChEMBL document CHEMBL5724914, “Linking interpersonal differences in gut microbiota composition and drug biotransformation activity” (2024)

Tests used:
[1] = (§1) The drug is tested on WLS-038 corresponding to human gut metagenome with ENA study accession number: PRJEB37062 and ENA sample accession number: ERS12561745 for biotransformation under anaerobic condition. The drug concentrations were measured over 9 timepoints collected between 0 and 24 hours of incubation by liquid-chromatography-coupled mass spectrometry (LC–MS); conditions: 2 µM
[2] = human gut metagenome, 24 h, 2 µM
[3] = as §1, with “Z-005” for “WLS-038”, “to” for “to human gut”, “ERS12561805” for “ERS12561745”; conditions: 2 µM
[4] = as §1, with “WLS-052” for “WLS-038”, “ERS12561747” for “ERS12561745”; conditions: 2 µM
[5] = human gut metagenome, 24 h, 2 µM; remark: listed apart in the source
[6] = human gut metagenome, 24 h, 2 µM; remark: listed apart in the source
[7] = as §1, with “Z-017” for “WLS-038”, “mouse” for “human”, “ERS12561816” for “ERS12561745”; conditions: 2 µM
[8] = human gut metagenome, 24 h, 2 µM; remark: listed apart in the source
[9] = human gut metagenome, 24 h, 2 µM; remark: listed apart in the source
[10] = human gut metagenome, 24 h, 2 µM; remark: listed apart in the source
[11] = as §1, with “WLS-077” for “WLS-038”, “ERS12561750” for “ERS12561745”; conditions: 2 µM
[12] = as §1, with “Z-012” for “WLS-038”, “to” for “to human gut”, “ERS12561812” for “ERS12561745”; conditions: 2 µM
[13] = as §1, with “Z-030” for “WLS-038”, “mouse” for “human”, “ERS12561829” for “ERS12561745”; conditions: 2 µM
[14] = as §1, with “WLS-350” for “WLS-038”, “ERS12561789” for “ERS12561745”; conditions: 2 µM
[15] = as §1, with “WLS-073” for “WLS-038”, “ERS12561749” for “ERS12561745”; conditions: 2 µM
[16] = as §1, with “Z-008” for “WLS-038”, “to” for “to human gut”, “ERS12561808” for “ERS12561745”; conditions: 2 µM
[17] = as §1, with “Z-007” for “WLS-038”, “rat” for “human”, “ERS12561807” for “ERS12561745”; conditions: 2 µM
[18] = human gut metagenome, 24 h, 2 µM; remark: listed apart in the source
[19] = as §1, with “Z-010” for “WLS-038”, “to” for “to human gut”, “ERS12561810” for “ERS12561745”; conditions: 2 µM
[20] = as §1, with “Z-027” for “WLS-038”, “to” for “to human gut”, “ERS12561826” for “ERS12561745”; conditions: 2 µM
Also: call rule not given here.

Bacterial Biotransformation [1] | Bacterial Biotransformation [2] | Bacterial Biotransformation [3] | Bacterial Biotransformation [4] | Bacterial Biotransformation [5] | Bacterial Biotransformation [6] | Bacterial Biotransformation [7] | Bacterial Biotransformation [8] | Bacterial Biotransformation [9] | Bacterial Biotransformation [10] | Bacterial Biotransformation [11] | Bacterial Biotransformation [12] | Bacterial Biotransformation [13] | Bacterial Biotransformation [14] | Bacterial Biotransformation [15] | Bacterial Biotransformation [16] | Bacterial Biotransformation [17] | Bacterial Biotransformation [18] | Bacterial Biotransformation [19] | Bacterial Biotransformation [20] | SMILES
Compound NOT metabolized | Compound NOT metabolized | Compound NOT metabolized | Compound NOT metabolized | Compound NOT metabolized | Compound NOT metabolized | Compound NOT metabolized | Compound NOT metabolized | Compound NOT metabolized | Compound NOT metabolized | Compound NOT metabolized | Compound NOT metabolized | Compound NOT metabolized | Compound NOT metabolized | Compound NOT metabolized | Compound NOT metabolized | Compound NOT metabolized | Compound NOT metabolized | Compound NOT metabolized | Compound NOT metabolized | CC(C)(C(=O)O)c1ccc(C(O)CCCN2CCC(C(O)(c3ccccc3)c3ccccc3)CC2)cc1 (stereo not given) [FEXOFENADINE]
Compound metabolized | Compound metabolized | Compound metabolized | Compound metabolized | Compound NOT metabolized | Compound metabolized | Compound NOT metabolized | Compound metabolized | Compound metabolized | Compound metabolized | Compound metabolized | Compound metabolized | Compound NOT metabolized | Compound metabolized | Compound metabolized | Compound NOT metabolized | Compound NOT metabolized | Compound metabolized | Compound metabolized | Compound metabolized | Cc1ccc(S(=O)(=O)NC(=O)NN2CC3CCCC3C2)cc1 (stereo not given) [GLICLAZIDE]
Compound metabolized | Compound metabolized | Compound metabolized | Compound metabolized | Compound NOT metabolized | Compound metabolized | Compound metabolized | Compound metabolized | Compound metabolized | Compound metabolized | Compound metabolized | Compound metabolized | Compound NOT metabolized | Compound NOT metabolized | Compound metabolized | Compound NOT metabolized | Compound metabolized | Compound metabolized | Compound metabolized | Compound metabolized | COC1=CC(=O)C[C@@H](C)[C@]12Oc1c(Cl)c(OC)cc(OC)c1C2=O [GRISEOFULVIN]

SMILES | Bacterial Biotransformation [1] | Bacterial Biotransformation [2] | Bacterial Biotransformation [3] | Bacterial Biotransformation [4] | Bacterial Biotransformation [5] | Bacterial Biotransformation [6] | Bacterial Biotransformation [7] | Bacterial Biotransformation [8] | Bacterial Biotransformation [9] | Bacterial Biotransformation [10] | Bacterial Biotransformation [11] | Bacterial Biotransformation [12] | Bacterial Biotransformation [13] | Bacterial Biotransformation [14] | Bacterial Biotransformation [15] | Bacterial Biotransformation [16] | Bacterial Biotransformation [17] | Bacterial Biotransformation [18] | Bacterial Biotransformation [19] | Bacterial Biotransformation [20]
COc1ccc2c3c1O[C@H]1C[C@@H](O)C=C[C@@]31CCN(C)C2 [GALANTAMINE] | Compound NOT metabolized | Compound metabolized | Compound NOT metabolized | Compound NOT metabolized | Compound NOT metabolized | Compound metabolized | Compound NOT metabolized | Compound metabolized | Compound metabolized | Compound NOT metabolized | Compound NOT metabolized | Compound NOT metabolized | Compound NOT metabolized | Compound metabolized | Compound NOT metabolized | Compound NOT metabolized | Compound NOT metabolized | Compound metabolized | Compound metabolized | Compound NOT metabolized
